pIC50: −log10 of the molar value.
Columns and labels:
[1] = molecular target: interaction between PD-1 and PD-L1 (Homo sapiens, UniProt Q9NZQ7); test: PD-1/PD-L1 protein-protein interaction assay (ALPHA); type: binding; details: 2 nM His-tagged human PD-L1, 0.6 nM PD-1-Fc, AlphaScreen
[2] = molecular target: T1, PD-1/PD-L1 interaction (Homo sapiens, UniProt Q9NZQ7); test: PD-1/PD-L1 blockage cell-based bioassay (Jurkat NFAT luciferase / CHO-PDL1 co-culture); details: Jurkat NFAT cells co-cultured with CHO-PDL1 cells, 6 h, luminescence
T1 construct: expressed in transfected cells
T1 sequence (Q9NZQ7 19-290): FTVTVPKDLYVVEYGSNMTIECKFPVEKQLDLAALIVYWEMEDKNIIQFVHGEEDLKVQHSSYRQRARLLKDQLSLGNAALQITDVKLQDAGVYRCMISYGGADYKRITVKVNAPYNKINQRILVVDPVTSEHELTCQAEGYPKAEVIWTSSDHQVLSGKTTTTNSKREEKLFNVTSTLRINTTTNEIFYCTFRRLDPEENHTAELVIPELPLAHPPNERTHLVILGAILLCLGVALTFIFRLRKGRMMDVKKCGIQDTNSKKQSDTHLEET

interaction between PD-1 and PD-L1, sequence (Q9NZQ7 19-238 limits assumed): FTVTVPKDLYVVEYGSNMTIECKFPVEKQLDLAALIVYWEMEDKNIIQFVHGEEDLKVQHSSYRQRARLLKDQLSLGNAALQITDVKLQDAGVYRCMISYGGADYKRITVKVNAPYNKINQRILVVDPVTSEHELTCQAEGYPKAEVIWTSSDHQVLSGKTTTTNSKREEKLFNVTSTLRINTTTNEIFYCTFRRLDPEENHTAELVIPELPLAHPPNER

Structure (SMILES) | pIC50 [1] | pIC50 [2]
COc1cc(-n2ncc3c(-c4cccc(-c5ccc(CN6CC(C(C)(C)O)C6)c(OC)n5)c4Cl)cccc32)ncc1CNCCO [Example 142, 2-(1-((6-(2-chloro-3-(1-(5-(((2-hydroxyethyl)amino)methyl)-4-methoxypyridin-2-yl)-1H-indazol-4-yl)phenyl)-2-methoxypyridin-3-yl)methyl)azetidin-3-yl)propan-2-ol] | > 9.00 | > 6.70
COc1cc(-n2ncc3c(-c4cccc(-c5nc6cc(CN(C)C78CCC(C(=O)O)(CC7)CC8)cc(C#N)c6o5)c4C)cccc32)cc(OC)c1CN1CC[C@@H](O)C1 [Example 157, (R)-4-(((7-cyano-2-(3-(1-(4-((3-hydroxypyrrolidin-1-yl)methyl)-3,5-dimethoxyphenyl)-1H-indazol-4-yl)-2-methylphenyl)benzo[d]oxazol-5-yl)methyl)(methyl)amino)bicyclo[2.2.2]octane-1-carboxylic acid] | > 9.00 | > 6.70
COc1cc(-n2ncc3c(-c4cccc(Nc5nc(C(F)F)nc6cc(CN7CC[C@@H](O)C7)cnc56)c4C)cccc32)cc(OC)c1CN1CC[C@@](C)(C(=O)O)C1 [Example 158, (R)-1-(4-(4-(3-((2-(difluoromethyl)-7-(((R)-3-hydroxypyrrolidin-1-yl)methyl)pyrido[3,2-d]pyrimidin-4-yl)amino)-2-methylphenyl)-1H-indazol-1-yl)-2,6-dimethoxybenzyl)-3-methylpyrrolidine-3-carboxylic acid] | > 9.00 | > 6.70
COc1cc(-n2ncc3c(-c4cccc(-c5nc6cc(CN(C)C78CCC(C(=O)O)(CC7)CC8)cc(C#N)c6o5)c4C)cccc32)cc(OC)c1CN1CC(O)C1 [Example 159, 4-(((7-cyano-2-(3-(1-(4-((3-hydroxyazetidin-1-yl)methyl)-3,5-dimethoxyphenyl)-1H-indazol-4-yl)-2-methylphenyl)benzo[d]oxazol-5-yl)methyl)(methyl)amino)bicyclo[2.2.2]octane-1-carboxylic acid] | > 9.00 | > 6.70
COc1cc(-n2ncc3c(-c4cccc(Nc5nc(C(F)F)nc6cc(CN7CC[C@@H](O)C7)cnc56)c4C)cccc32)cc(OC)c1CN1CCC(C(=O)O)CC1 [Example 163, (R)-1-(4-(4-(3-((2-(difluoromethyl)-7-((3-hydroxypyrrolidin-1-yl)methyl)pyrido[3,2-d]pyrimidin-4-yl)amino)-2-methylphenyl)-1H-indazol-1-yl)-2,6-dimethoxybenzyl)piperidine-4-carboxylic acid] | > 9.00 | 5.70 to 6.70
COc1cc(-c2cccc(-c3cccc4c3cnn4-c3cc(OC)c(CN4CC[C@@H](O)C4)c(OC)c3)c2Cl)cc(F)c1CN(C)C12CCC(C(=O)O)(CC1)CC2 [Example 164, (R)-4-(((2′-chloro-3-fluoro-β′-(1-(4-((3-hydroxypyrrolidin-1-yl)methyl)-3,5-dimethoxyphenyl)-1H-indazol-4-yl)-5-methoxy-[1,1′-biphenyl]-4-yl)methyl)(methyl)amino)bicyclo[2.2.2]octane-1-carboxylic acid] | > 9.00 | > 6.70
COc1cc(-n2ncc3c(-c4cccc(Nc5nc(C(F)F)nc6cc(CN7CC[C@@H](C(=O)O)C7)cnc56)c4C)cccc32)cc(OC)c1CN1CC[C@@H](O)C1 [Example 165, (R)-1-((2-(difluoromethyl)-4-((3-(1-(4-(((R)-3-hydroxypyrrolidin-1-yl)methyl)-3,5-dimethoxyphenyl)-1H-indazol-4-yl)-2-methylphenyl)amino)pyrido[3,2-d]pyrimidin-7-yl)methyl)pyrrolidine-3-carboxylic acid] | > 9.00 | > 6.70
COc1cc(-n2ncc3c(-c4cccc(Nc5nc(C(F)F)nc6cc(CN7CC[C@@H](O)C7)cnc56)c4C)cccc32)cc(OC)c1CN(C)C12CCC(C(=O)O)(CC1)CC2 [Example 166, (R)-4-((4-(4-(3-((2-(difluoromethyl)-7-((3-hydroxypyrrolidin-1-yl)methyl)pyrido[3,2-d]pyrimidin-4-yl)amino)-2-methylphenyl)-1H-indazol-1-yl)-2,6-dimethoxybenzyl)(methyl)amino)bicyclo[2.2.2]octane-1-carboxylic acid] | > 9.00 | > 6.70

The remaining lines, values ahead:

pIC50 [1] | pIC50 [2] | Structure (SMILES)
8.00 to 9.00 | 5.70 to 6.70 | COc1cc(-n2ncc3c(-c4cccc(-c5ccc(CN6CC(C(C)(C)O)C6)c(OC)n5)c4Cl)cccc32)cc(OC)c1CN1CC2(CCC(=O)N2)C1 [Example 140, 2-(4-(4-(2-chloro-3-(5-((3-(2-hydroxypropan-2-yl)azetidin-1-yl)methyl)-6-methoxypyridin-2-yl)phenyl)-1H-indazol-1-yl)-2,6-dimethoxybenzyl)-2,5-diazaspiro[3.4]octan-6-one]
> 9.00 | > 6.70 | COc1cc(-n2ncc3c(-c4cccc(-c5ccc(CN6CC7(CNC(=O)C7)C6)c(OC)n5)c4Cl)cccc32)cc(OC)c1CN[C@H](C(=O)O)[C@@H](C)O [Example 141, (4-(4-(2-chloro-3-(6-methoxy-5-((7-oxo-2,6-diazaspiro[3.4]octan-2-yl)methyl)pyridin-2-yl)phenyl)-1H-indazol-1-yl)-2,6-dimethoxybenzyl)-L-threonine]
8.00 to 9.00 | 5.70 to 6.70 | CCOC(=O)[C@@H](NCc1c(OC)cc(-n2ncc3c(-c4cccc(-c5ccc(CN6CC7(CNC(=O)C7)C6)c(OC)n5)c4Cl)cccc32)cc1OC)[C@@H](C)O [Example 145, Ethyl (4-(4-(2-chloro-3-(6-methoxy-5-((7-oxo-2,6-diazaspiro[3.4]octan-2-yl)methyl)pyridin-2-yl)phenyl)-1H-indazol-1-yl)-2,6-dimethoxybenzyl)-L-threoninate]
> 9.00 | 5.70 to 6.70 | CCOC(=O)[C@@H](NCc1c(OC)cc(-n2ncc3c(-c4cccc(-c5ccc(CNC[C@@H]6CCC(=O)N6)c(OC)n5)c4Cl)cccc32)cc1OC)[C@@H](C)O [Example 146, (2S,3R)-ethyl 2-((4-(4-(2-chloro-3-(6-methoxy-5-(((((S)-5-oxopyrrolidin-2-yl)methyl)amino)methyl)pyridin-2-yl)phenyl)-1H-indazol-1-yl)-2,6-dimethoxybenzyl)amino)-3-hydroxybutanoate]
8.00 to 9.00 | 5.70 to 6.70 | CCOC(=O)[C@@H](CO)NCc1c(OC)cc(-n2ncc3c(-c4cccc(-c5ccc(CNC[C@@H]6CCC(=O)N6)c(OC)n5)c4Cl)cccc32)cc1OC [Example 147, Ethyl (2R)-2-[({4-[4-(2-chloro-3-{6-methoxy-5-[({[(2S)-5-oxopyrrolidin-2-yl]methyl)amino)methyl}pyridin-2-yl}phenyl)-1H-indazol-1-yl]-2,6-dimethoxyphenyl}methyl)amino]-3-hydroxypropanoate]
> 9.00 | > 6.70 | COc1cc(-n2ncc3c(-c4cccc(-c5ccc(CN6CC7(CNC(=O)C7)C6)c(OC)n5)c4Cl)cccc32)cc(OC)c1CN1CC(C(=O)O)C1 [Example 150, 1-(4-(4-(2-chloro-3-(6-methoxy-5-((7-oxo-2,6-diazaspiro[3.4]octan-2-yl)methyl)pyridin-2-yl)phenyl)-1H-indazol-1-yl)-2,6-dimethoxybenzyl)azetidine-3-carboxylic acid]
8.00 to 9.00 | > 6.70 | CCOC(=O)C1(C)CN(Cc2c(OC)cc(-n3ncc4c(-c5cccc(-c6ccc(CNC[C@@H]7CCC(=O)N7)c(OC)n6)c5Cl)cccc43)cc2OC)C1 [Example 151, ethyl (S)-1-(4-(4-(2-chloro-3-(6-methoxy-5-((((5-oxopyrrolidin-2-yl)methyl)amino)methyl)pyridin-2-yl)phenyl)-1H-indazol-1-yl)-2,6-dimethoxybenzyl)-3-methylazetidine-3-carboxylate]
> 9.00 | > 6.70 | COc1cc(-n2ncc3c(-c4cccc(-c5nc6cc(CN7CC[C@@H](C(=O)O)C7)cc(C#N)c6o5)c4C)cccc32)cc(OC)c1CN1CC[C@@H](O)C1 [Example 154, (R)-1-((7-cyano-2-(3-(1-(4-(((R)-3-hydroxypyrrolidin-1-yl)methyl)-3,5-dimethoxyphenyl)-1H-indazol-4-yl)-2-methylphenyl)benzo[d]oxazol-5-yl)methyl)pyrrolidine-3-carboxylic acid]
> 9.00 | > 6.70 | COc1cc(-n2ncc3c(-c4cccc(-c5nc6cc(CN7CC[C@@H](C(=O)O)C7)cc(C#N)c6o5)c4C)cccc32)cc(OC)c1CN1CC[C@H](O)C1 [Example 155, (R)-1-((7-cyano-2-(3-(1-(4-(((S)-3-hydroxypyrrolidin-1-yl)methyl)-3,5-dimethoxyphenyl)-1H-indazol-4-yl)-2-methylphenyl)benzo[d]oxazol-5-yl)methyl)pyrrolidine-3-carboxylic acid]
> 9.00 | > 6.70 | COc1cc(-c2cccc(-c3cccc4c3cnn4-c3cc(OC)c(CN4CC5(CNC(=O)C5)C4)c(OC)c3)c2Cl)cc(F)c1CN(C)C12CCC(C(=O)O)(CC1)CC2 [Example 160, 4-(((2′-chloro-3′-(1-(3,5-dimethoxy-4-((7-oxo-2,6-diazaspiro[3.4]octan-2-yl)methyl)phenyl)-1H-indazol-4-yl)-3-fluoro-5-methoxy-[1,1′-biphenyl]-4-yl)methyl)(methyl)amino)bicyclo[2.2.2]octane-1-carboxylic acid]

— US20240336601A1 (Chulalongkorn University, priority 2020, published 2024)
